In US20230085307A1, “PYRIDAZINONE COMPOUND AND HERBICIDE” (NISSAN CHEMICAL CORPORATION, priority 2019, published 2023):

What was measured:
barnyard grass [1] = test: Test Example 4: herbicidal effect by soil treatment (Table 19, symbol H); format: in vivo, barnyard grass (Echinochloa crus-galli); conditions: amount of applied herbicide 320 g/ha
In short: (§1)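 Seeds were sown in sterilized diluvial soil and covered with about 1.5 cm of soil. An emulsion formulation diluted with water to a predetermined herbicide amount was sprayed evenly onto the soil surface. Plants grew in a greenhouse at 25° C. to 30° C., and the effect was scored three weeks after application using criteria from an earlier test.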

southern crabgrass [2] = test: Test Example 4: herbicidal effect by soil treatment (Table 19, symbol F); format: in vivo, southern crabgrass (Digitaria ciliaris); conditions: amount of applied herbicide 320 g/ha
In short: as §1

lambsquarters [3] = test: Test Example 4: herbicidal effect by soil treatment (Table 19, symbol O); format: in vivo, lambsquarters (Chenopodium album); conditions: amount of applied herbicide 320 g/ha
In short: as §1

green foxtail [4] = test: Test Example 4: herbicidal effect by soil treatment (Table 19, symbol G); format: in vivo, green foxtail (Setaria viridis); conditions: amount of applied herbicide 320 g/ha
In short: as §1

Italian ryegrass [5] = test: Test Example 4: herbicidal effect by soil treatment (Table 19, symbol K); format: in vivo, Italian ryegrass (Lolium multiflorum); conditions: amount of applied herbicide 320 g/ha
In short: as §1

Italian ryegrass [6] = test: Test Example 5: herbicidal effect by foliage application, plastic box (Table 20, symbol K); format: in vivo, Italian ryegrass (Lolium multiflorum); conditions: foliage application, 320 g/ha, evaluated three weeks after application
In short: (§2)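 Plants sown in sterilized diluvial soil and grown 14 days in a greenhouse at 25° C to 30° C, then sprayed on the foliage with the compound's emulsion diluted in water to a predetermined herbicide amount. Injury to weeds and crops scored three weeks after application on a visual rating scale.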

persian speedwell [7] = test: Test Example 5: herbicidal effect by foliage application, plastic box (Table 20, symbol R); format: in vivo, Persian speedwell (Veronica persica); conditions: foliage application, 320 g/ha, evaluated three weeks after application
In short: as §2

barnyard grass [8] = test: Test Example 5: herbicidal effect by foliage application, plastic box (Table 20, symbol H); format: in vivo, barnyard grass (Echinochloa crus-galli); conditions: foliage application, 320 g/ha, evaluated three weeks after application
In short: as §2

barnyard grass [9] = test: Test Example 3: herbicidal effect by foliage application, Wagner pot (Table 18, symbol H); format: in vivo, barnyard grass (Echinochloa crus-galli); conditions: amount of applied herbicide 320 g/ha
In short: (§3)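 Plants were sown in alluvial soil held under 0.1–0.5 cm standing water and grown 14 days in a greenhouse at 25–30 °C. An emulsifiable formulation, water-diluted to the set dose, was then sprayed onto the foliage, and effects were scored three weeks later using previously defined criteria.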

velvetleaf [10] = test: Test Example 4: herbicidal effect by soil treatment (Table 19, symbol M); format: in vivo, velvetleaf (Abutilon theophrasti); conditions: amount of applied herbicide 320 g/ha
In short: as §1

blackgrass [11] = test: Test Example 4: herbicidal effect by soil treatment (Table 19, symbol J); format: in vivo, blackgrass (Alopecurus myosuroides); conditions: amount of applied herbicide 320 g/ha
In short: as §1

windgrass [12] = test: Test Example 4: herbicidal effect by soil treatment (Table 19, symbol L); format: in vivo, windgrass (Apera spica-venti); conditions: amount of applied herbicide 320 g/ha
In short: as §1

blackgrass [13] = test: Test Example 5: herbicidal effect by foliage application, plastic box (Table 20, symbol J); format: in vivo, blackgrass (Alopecurus myosuroides); conditions: foliage application, 320 g/ha, evaluated three weeks after application
In short: as §2

Japanese bulrush = test: Test Example 1: herbicidal activity, application before weed generation under submerged conditions (Table 16, symbol B); format: in vivo, Japanese bulrush (Schoenoplectus juncoides); conditions: 320 g/ha applied herbicide
In short: (§4)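 Emulsion formulation, water-diluted to set dose, was put onto the flooded surface (4 cm depth, alluvial soil) the same day weeds were sown and 2.5-leaf rice transplanted. After 3 weeks at 25-30 °C under glass, each species was rated 0 (≤5% kill) to 5 (≥90% kill).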

green foxtail [14] = test: Test Example 5: herbicidal effect by foliage application, plastic box (Table 20, symbol G); format: in vivo, green foxtail (Setaria viridis); conditions: foliage application, 320 g/ha, evaluated three weeks after application
In short: as §2

oval-leafed pondweed = test: Test Example 1: herbicidal activity, application before weed generation under submerged conditions (Table 16, symbol C); format: in vivo, oval-leafed pondweed (Monochoria vaginalis); conditions: 320 g/ha applied herbicide
In short: as §4

redroot pigweed [15] = test: Test Example 5: herbicidal effect by foliage application, plastic box (Table 20, symbol N); format: in vivo, redroot pigweed (Amaranthus retroflexus); conditions: foliage application, 320 g/ha, evaluated three weeks after application
In short: as §2

redroot pigweed [16] = test: Test Example 4: herbicidal effect by soil treatment (Table 19, symbol N); format: in vivo, redroot pigweed (Amaranthus retroflexus); conditions: amount of applied herbicide 320 g/ha
In short: as §1

persian speedwell [17] = test: Test Example 4: herbicidal effect by soil treatment (Table 19, symbol R); format: in vivo, Persian speedwell (Veronica persica); conditions: amount of applied herbicide 320 g/ha
In short: as §1

chickweed [18] = test: Test Example 5: herbicidal effect by foliage application, plastic box (Table 20, symbol P); format: in vivo, common chickweed (Stellaria media); conditions: foliage application, 320 g/ha, evaluated three weeks after application
In short: as §2

wild oat [19] = test: Test Example 5: herbicidal effect by foliage application, plastic box (Table 20, symbol I); format: in vivo, wild oat (Avena fatua); conditions: foliage application, 320 g/ha, evaluated three weeks after application
In short: as §2

chickweed [20] = test: Test Example 4: herbicidal effect by soil treatment (Table 19, symbol P); format: in vivo, common chickweed (Stellaria media); conditions: amount of applied herbicide 320 g/ha
In short: as §1

southern crabgrass [21] = test: Test Example 5: herbicidal effect by foliage application, plastic box (Table 20, symbol F); format: in vivo, southern crabgrass (Digitaria ciliaris); conditions: foliage application, 320 g/ha, evaluated three weeks after application
In short: as §2

lambsquarters [22] = test: Test Example 5: herbicidal effect by foliage application, plastic box (Table 20, symbol O); format: in vivo, lambsquarters (Chenopodium album); conditions: foliage application, 320 g/ha, evaluated three weeks after application
In short: as §2

windgrass [23] = test: Test Example 5: herbicidal effect by foliage application, plastic box (Table 20, symbol L); format: in vivo, windgrass (Apera spica-venti); conditions: foliage application, 320 g/ha, evaluated three weeks after application
In short: as §2

rice flat sedge = test: Test Example 3: herbicidal effect by foliage application, Wagner pot (Table 18, symbol E); format: in vivo, rice flat sedge (Cyperus iria); conditions: amount of applied herbicide 320 g/ha
In short: as §3

wild oat [24] = test: Test Example 4: herbicidal effect by soil treatment (Table 19, symbol I); format: in vivo, wild oat (Avena fatua); conditions: amount of applied herbicide 320 g/ha
In short: as §1

velvetleaf [25] = test: Test Example 5: herbicidal effect by foliage application, plastic box (Table 20, symbol M); format: in vivo, velvetleaf (Abutilon theophrasti); conditions: foliage application, 320 g/ha, evaluated three weeks after application
In short: as §2

late watergrass = test: Test Example 1: herbicidal activity, application before weed generation under submerged conditions (Table 16, symbol A); format: in vivo, late watergrass (Echinochloa oryzicola); conditions: 320 g/ha applied herbicide
In short: as §4

Chinese sprangletop = test: Test Example 3: herbicidal effect by foliage application, Wagner pot (Table 18, symbol D); format: in vivo, chinese sprangletop (Leptochloa chinensis); conditions: amount of applied herbicide 320 g/ha
In short: as §3

Row | SMILES | herbicidal effect on K: Italian ryegrass (criteria 0-5) (Italian ryegrass [6]) | herbicidal effect on R: persian speedwell (criteria 0-5) (persian speedwell [7]) | herbicidal effect on H: barnyard grass (criteria 0-5) (barnyard grass [8]) | herbicidal effect on H: barnyard grass (barnyard grass [9]) | herbicidal effect on J: blackgrass (criteria 0-5) (blackgrass [13]) | Herbicidal effect on B: Japanese bulrush (grade 0-5) (Japanese bulrush) | herbicidal effect on G: green foxtail (criteria 0-5) (green foxtail [14]) | Herbicidal effect on C: oval-leafed pondweed (grade 0-5) (oval-leafed pondweed) | herbicidal effect on N: redroot pigweed (criteria 0-5) (redroot pigweed [15]) | herbicidal effect on P: chickweed (criteria 0-5) (chickweed [18]) | herbicidal effect on I: wild oat (criteria 0-5) (wild oat [19]) | herbicidal effect on F: southern crabgrass (criteria 0-5) (southern crabgrass [21]) | herbicidal effect on O: lambsquarters (criteria 0-5) (lambsquarters [22]) | herbicidal effect on L: windgrass (criteria 0-5) (windgrass [23]) | herbicidal effect on E: rice flat sedge (rice flat sedge) | herbicidal effect on M: velvetleaf (criteria 0-5) (velvetleaf [25]) | Herbicidal effect on A: late watergrass (grade 0-5) (late watergrass) | herbicidal effect on D: Chinese sprangletop (Chinese sprangletop) | further results
1 | CCCOc1cccc(-c2sc3ccc(F)cc3c2-c2c(O)c(C)nn(C)c2=O)c1 [2-213] | 4 (Herbicidal rate of 70% or more and less than 90%) | 5 (Herbicidal rate of 90% or more (almost completely withered)) | 3 (Herbicidal rate of 40% or more and less than 70%) | 4 (Herbicidal rate of 70% or more and less than 90%) | 3 (Herbicidal rate of 40% or more and less than 70%) | 0 (Herbicidal rate of 5% or less (almost no effect)) | 4 (Herbicidal rate of 70% or more and less than 90%) | 0 (Herbicidal rate of 5% or less (almost no effect)) | 5 (Herbicidal rate of 90% or more (almost completely withered)) | 5 (Herbicidal rate of 90% or more (almost completely withered)) | 0 (Herbicidal rate of 5% or less (almost no effect)) | 5 (Herbicidal rate of 90% or more (almost completely withered)) | 4 (Herbicidal rate of 70% or more and less than 90%) | 4 (Herbicidal rate of 70% or more and less than 90%) | 3 (Herbicidal rate of 40% or more and less than 70%) | 1 (Herbicidal rate of 5% or more and less than 20%) | 3 (Herbicidal rate of 40% or more and less than 70%) | 3 (Herbicidal rate of 40% or more and less than 70%) | H: barnyard grass, herbicidal effect rating (barnyard grass [1]): 3 (Herbicidal rate of 40% or more and less than 70%); F: southern crabgrass, herbicidal effect rating (southern crabgrass [2]): 5 (Herbicidal rate of 90% or more (almost completely withered)); O: lambsquarters, herbicidal effect rating (lambsquarters [3]): 1 (Herbicidal rate of 5% or more and less than 20%); G: green foxtail, herbicidal effect rating (green foxtail [4]): 4 (Herbicidal rate of 70% or more and less than 90%); K: Italian ryegrass, herbicidal effect rating (Italian ryegrass [5]): 4 (Herbicidal rate of 70% or more and less than 90%); M: velvetleaf, herbicidal effect rating (velvetleaf [10]): 0 (Herbicidal rate of 5% or less (almost no effect)); J: blackgrass, herbicidal effect rating (blackgrass [11]): 0 (Herbicidal rate of 5% or less (almost no effect)); L: windgrass, herbicidal effect rating (windgrass [12]): 0 (Herbicidal rate of 5% or less (almost no effect)); N: redroot pigweed, herbicidal effect rating (redroot pigweed [16]): 5 (Herbicidal rate of 90% or more (almost completely withered)); R: persian speedwell, herbicidal effect rating (persian speedwell [17]): 5 (Herbicidal rate of 90% or more (almost completely withered)); P: chickweed, herbicidal effect rating (chickweed [20]): 3 (Herbicidal rate of 40% or more and less than 70%); I: wild oat, herbicidal effect rating (wild oat [24]): 0 (Herbicidal rate of 5% or less (almost no effect))
2 | CCCCCCOc1cccc(-c2sc3ccc(F)cc3c2-c2c(O)c(C)nn(C)c2=O)c1 [2-226] | 0 (Herbicidal rate of 5% or less (almost no effect)) | 0 (Herbicidal rate of 5% or less (almost no effect)) | 0 (Herbicidal rate of 5% or less (almost no effect)) | 4 (Herbicidal rate of 70% or more and less than 90%) | 0 (Herbicidal rate of 5% or less (almost no effect)) | 0 (Herbicidal rate of 5% or less (almost no effect)) | 0 (Herbicidal rate of 5% or less (almost no effect)) | 0 (Herbicidal rate of 5% or less (almost no effect)) | 5 (Herbicidal rate of 90% or more (almost completely withered)) | 4 (Herbicidal rate of 70% or more and less than 90%) | 0 (Herbicidal rate of 5% or less (almost no effect)) | 0 (Herbicidal rate of 5% or less (almost no effect)) | 4 (Herbicidal rate of 70% or more and less than 90%) | 5 (Herbicidal rate of 90% or more (almost completely withered)) | 3 (Herbicidal rate of 40% or more and less than 70%) | 4 (Herbicidal rate of 70% or more and less than 90%) | 2 (Herbicidal rate of 20% or more and less than 40%) | 3 (Herbicidal rate of 40% or more and less than 70%) | herbicidal effect on H: barnyard grass (barnyard grass [1]): 0 (Herbicidal rate of 5% or less (almost no effect)); herbicidal effect on F: southern crabgrass (southern crabgrass [2]): 0 (Herbicidal rate of 5% or less (almost no effect)); herbicidal effect on O: lambsquarters (lambsquarters [3]): 0 (Herbicidal rate of 5% or less (almost no effect)); herbicidal effect on G: green foxtail (green foxtail [4]): 0 (Herbicidal rate of 5% or less (almost no effect)); herbicidal effect on K: Italian ryegrass (Italian ryegrass [5]): 0 (Herbicidal rate of 5% or less (almost no effect)); herbicidal effect on M: velvetleaf (velvetleaf [10]): 0 (Herbicidal rate of 5% or less (almost no effect)); herbicidal effect on J: blackgrass (blackgrass [11]): 0 (Herbicidal rate of 5% or less (almost no effect)); herbicidal effect on L: windgrass (windgrass [12]): 0 (Herbicidal rate of 5% or less (almost no effect)); herbicidal effect on N: redroot pigweed (redroot pigweed [16]): 3 (Herbicidal rate of 40% or more and less than 70%); herbicidal effect on R: persian speedwell (persian speedwell [17]): 0 (Herbicidal rate of 5% or less (almost no effect)); herbicidal effect on P: chickweed (chickweed [20]): 0 (Herbicidal rate of 5% or less (almost no effect)); herbicidal effect on I: wild oat (wild oat [24]): 0 (Herbicidal rate of 5% or less (almost no effect))
